One data set has as its target CAI. As to conditions: reported coumarins, Figure 1; cited from earlier work.
A further data set concerns the target T1, hCA I (Homo sapiens, UniProt P00915).
T1 construct: purchased
Kind of data set: CA inhibition by the esterase assay, hCA I. Type of data set: biochemical. As to conditions: for IC50: human recombinant enzyme, 4-nitrophenylacetate as substrate. Here is the method: (§1) The esterase assay was used for testing the inhibitory activities of target compounds against carbonic anhydrases. […] Next, the stock solution of inhibitor was diluted to the specified concentration by using analysis buffer. […] In addition, the purchased CA was diluted with analysis buffer and added to 96-well plates. Next, different concentrations of inhibitors were also added to 96-well plates. To form the inhibitors and enzymes complex, E-I solutions were preincubated together for 4 h before the test at room temperature. Meanwhile, the nonenzymatic hydrolysis rates were tested by the blank control experiments. The absorbances were determined by using multifunctional enzyme marking instrument.

A further data set has as its target CAII. As to conditions: reported coumarins, Figure 1; cited from earlier work.
The next data set deals with CAIX. The note with it: reported coumarins, Figure 1; cited from earlier work.
In the next data set the target is hCA II (Homo sapiens, UniProt P00918). Kind of data set: CA inhibition by the esterase assay, hCA II. The class given is biochemical. The note with it: human recombinant enzyme, 4-nitrophenylacetate as substrate. Here is the method:
as §1

Another data set deals with T2, hCA IX (Homo sapiens, UniProt Q16790).
T2 construct: purchased
Kind of data set: CA inhibition by the esterase assay, hCA IX. The class given is biochemical. The note with it: for Inhibition of hCA IX (in words) / IC50: esterase assay; for IC50: human recombinant enzyme, 4-nitrophenylacetate as substrate; for Selectivity Ratio hCA I/hCA IX / Selectivity Ratio hCA II/hCA IX: ratio of IC50 values. How it is done: as §1

The subject of the next data set is MDA-MB-231 cells. Kind of data set: Cell viability MTT assay, MDA-MB-231. The class given is cell-based. The note with it: Homo sapiens. Here is the method:
(§2) In the present study, the potential cytotoxicity of compounds 10a–10p was evaluated in vitro by MTT assay. […] So, half of each cell line were subjected to hypoxic conditions (0.5% O2, 5% CO2 and 94.5% N2) for inducing the expression of CA IX and the other half were incubated under normal conditions (normoxia). Subsequently, all synthesized derivatives were screened at a concentration of 100 μM to test their cytotoxicity in mentioned above cells.
(§3) The two human cancer cell lines were cultivated for 24 h at 37 °C in a 96-well plate. Subsequently, different concentrations of inhibitors were added to 96-well plate and then was incubated for 96 hours. After the MTT solution was added to per well, cancer cells were further incubated for 4 h at 37 °C. Finally, formazan crystals were dissolved by using DMSO. The cancer cells were from American Type Culture Collection.

Another data set relates to HT-29 cells. As to the kind of experiment: Cell viability MTT assay, HT-29. The note with it: Homo sapiens. Type of data set: cell-based. Here is the method: as §2, §3
The test system of a further data set is MDA-MB-231 cancer cells. Kind of data set: Extracellular pH measurement, MDA-MB-231. Type of data set: cell-based, human. The note with it: MDA-MB-231, 0.1 and 0.5 mM, 48 h, normoxia and hypoxia. How it is done: (§4) One important feature of CA IX is regulating the pH of tumor cells. The expression of CA IX in solid tumors will make the extracellular pH become more acidic to promote tumor growth and metastasis. Therefore, the effect on extracellular pH of the representative compounds 10a and 10h was tested in hypoxia and normoxic conditions. […] Especially, the extracellular acidification of these two cancer cells could be slightly reversed by this compound under normoxic condition. In addition, the reversal of extracellular acidification is more significant under hypoxia condition. Furthermore, a dose-dependent effect was observed.
(§5) Figure 3 Extracellular pH measurement after 48 h of HT-29 and MDA-MB-231 cancer cells in normoxia and hypoxia upon treatment with compound 10a and 10h (0.1 and 0.5 mM).

Data set [1] in a line: Metabolic stability in mouse liver microsomes. The note with it: mouse, liver microsomes.
A further data set deals with HT-29 cancer cells. As to the kind of experiment: Extracellular pH measurement, HT-29. Type of data set: cell-based, human. The note with it: HT-29, 0.1 and 0.5 mM, 48 h, normoxia and hypoxia. Here is the method: as §4, §5
A further data set deals with T3, hERG channel (Homo sapiens, UniProt Q12809).
T3 construct: expressed in transfected cells; host or cells: HEK 293
Kind of data set: Inhibition evaluation on hERG K+ channel (whole-cell recording, HEK 293). Type of data set: cell-based. As to conditions: HEK 293 cells stably transfected with hERG.

For the next data set, the system named is MCF-10A cell line. Kind of data set: Cytotoxicity against normal cell line MCF-10A (MTT assay). The class given is cell-based. The note with it: Homo sapiens.
The subject of the next data set is mice. As to the kind of experiment: Acute toxicity assay in mice. As to conditions: mouse, in vivo, 14 days. How it is done: (§6) Finally, acute toxicity of representative compounds was conducted in mice to preliminarily evaluate the risk of target compounds to mammals. […].
(§7) […]. After the compound was administered, the latency of death was observed and recorded over a span of 14 days. The experimental protocols were evaluated and approved by the ethics committee of the Shenyang Pharmaceutical University.

Data set [2] can be described thus: Acute toxicity assay in mice. The note with it: mouse, in vivo, oral, mice, expected from preliminary data. Here is the method:
as §6, §7

The mark [3] stands for this setting: hypoxia (0.5% O2, 5% CO2 and 94.5% N2), read-out: Cell Viability (%) MDA-MB-231 Hypoxia.
Setting [4] is: normoxia, read-out: Cell Viability (%) MDA-MB-231 Normoxia.
Setting [5] is: hypoxia (0.5% O2, 5% CO2 and 94.5% N2), read-out: Cell Viability (%) HT-29 Hypoxia.
Setting [6] is: normoxia, read-out: Cell Viability (%) HT-29 Normoxia.

Like-named read-outs stand apart in the source and are kept apart here.

T1 sequence (P00915 whole entry): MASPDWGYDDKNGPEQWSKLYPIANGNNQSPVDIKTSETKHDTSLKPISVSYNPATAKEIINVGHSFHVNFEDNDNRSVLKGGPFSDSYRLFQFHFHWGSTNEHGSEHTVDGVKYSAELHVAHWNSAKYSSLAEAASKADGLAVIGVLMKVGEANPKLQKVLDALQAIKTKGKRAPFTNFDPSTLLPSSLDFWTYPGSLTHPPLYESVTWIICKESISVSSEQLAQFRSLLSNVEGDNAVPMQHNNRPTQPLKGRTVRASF
T3 sequence (Q12809 whole entry): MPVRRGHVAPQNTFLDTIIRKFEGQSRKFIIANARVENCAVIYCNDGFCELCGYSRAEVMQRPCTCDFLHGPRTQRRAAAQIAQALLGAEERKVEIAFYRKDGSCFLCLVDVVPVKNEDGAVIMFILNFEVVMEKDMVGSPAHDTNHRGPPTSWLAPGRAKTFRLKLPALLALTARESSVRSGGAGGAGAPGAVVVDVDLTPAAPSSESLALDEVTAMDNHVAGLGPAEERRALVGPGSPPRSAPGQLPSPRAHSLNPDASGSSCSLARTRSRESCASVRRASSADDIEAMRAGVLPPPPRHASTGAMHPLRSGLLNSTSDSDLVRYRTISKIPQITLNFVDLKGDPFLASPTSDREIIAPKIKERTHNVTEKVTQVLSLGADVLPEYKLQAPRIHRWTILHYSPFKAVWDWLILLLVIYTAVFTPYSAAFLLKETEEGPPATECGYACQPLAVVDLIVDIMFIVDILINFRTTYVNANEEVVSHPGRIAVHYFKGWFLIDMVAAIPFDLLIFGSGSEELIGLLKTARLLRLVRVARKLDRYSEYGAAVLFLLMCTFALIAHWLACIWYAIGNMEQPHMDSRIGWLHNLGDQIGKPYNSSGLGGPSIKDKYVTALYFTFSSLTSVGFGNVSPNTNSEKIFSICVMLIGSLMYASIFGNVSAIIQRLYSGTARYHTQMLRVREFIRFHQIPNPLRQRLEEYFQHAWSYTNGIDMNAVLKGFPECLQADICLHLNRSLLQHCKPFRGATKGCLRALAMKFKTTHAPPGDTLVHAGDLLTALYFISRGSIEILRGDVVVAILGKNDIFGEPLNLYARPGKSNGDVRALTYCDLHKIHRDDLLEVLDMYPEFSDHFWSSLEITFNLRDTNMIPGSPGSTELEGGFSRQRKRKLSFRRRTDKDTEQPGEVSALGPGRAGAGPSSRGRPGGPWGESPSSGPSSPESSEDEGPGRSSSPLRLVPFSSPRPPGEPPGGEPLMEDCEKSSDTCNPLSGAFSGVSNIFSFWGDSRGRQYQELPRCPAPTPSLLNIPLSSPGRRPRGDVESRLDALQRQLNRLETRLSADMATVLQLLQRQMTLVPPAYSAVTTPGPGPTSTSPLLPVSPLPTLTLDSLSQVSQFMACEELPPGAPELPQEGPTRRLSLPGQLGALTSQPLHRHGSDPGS
Description for hERG channel: HEK 293 cells were stably transfected with human Ether-a-gogo related gene (hERG) channel. The voltage-gated hERG potassium channel current was recorded at room temperature from randomly selected transfected cells using whole-cell recording technique with an EPC10 USB (HEKA) or Multiclamp 700 B amplifier (Molecular Devices) while electrical data was digitalized by Digidata1440 A with acquisition rate of 10 kHz and signals filtered at 2.5 KHz using Patchmaster or pClamp 10, respectively. Dofetilide was included as a positive control to ensure the accuracy and sensitivity of the test system. All experiments were performed in 3 times.

For the molecule `Cc1cc(=O)oc2cc(O)ccc12` [4-Methylumbelliferone, 4-methyl-7-hydroxy coumarin, reference compound], the results for the Ki at CAI, at CAII and at CAIX were more than 100 µM, more than 100 µM and 0.56 µM, respectively. Also, the “Inhibition of hCA I (in words)” value at hCA I was “not at all inhibited”. Further, the figures for the IC50 at hCA I, at hCA II and at hCA IX were more than 100 µM, more than 100 µM and 0.6 µM, respectively. On hCA IX, the “Inhibition of hCA IX (in words)” value is “weakly inhibited”.

As to `O=c1ccc2ccccc2o1` [Compound 2], the Ki on CAIX is more than 50 µM.

`Cc1cc(=O)oc2cc(O[C@@H]3O[C@H](CO)[C@@H](O)[C@H](O)[C@H]3O)ccc12` [Compound 8]: the Ki at CAI is 1 µM; at CAII, more than 100 µM; at CAIX, 0.37 µM.

Consider `O=c1ccc2ccc(OCc3cn([C@@H]4O[C@H](CO)[C@@H](O)[C@H]4O)nn3)cc2o1` [Compound 10h, 7-[(1-β-. D-ribofuranosyl-1H-1,2,3-triazol-4-yl)methoxy]-2H-chromen-2-one], for which the melting point is 131.2 to 133.6 °C. The viability at 100 µM in the data set on MDA-MB-231 cells (setting [3]) was 37.2%. The viability at 100 µM with MDA-MB-231 cells (setting [4]) was found to be 63.7%. In the data set with HT-29 cells (setting [5]), the viability at 100 µM came to 43.5%. The viability at 100 µM with HT-29 cells (setting [6]) is 54%. On hCA I, the IC50 was 23.3 µM. In addition, the “Effect on extracellular acidification (extracellular pH)” value in the data set on MDA-MB-231 cancer cells is on record as “weaker reversal effect of extracellular acidification”. In addition, in data set [1], the CLint scaled at 1 μM was determined as 4.21 mL/min/kg and the half-life at 1 μM stood at 21.7 h. Moreover, on hCA II, the IC50 turned out to be 19 µM. In addition, at hCA IX, the IC50 turned out to be 0.132 µM, the “Selectivity Ratio hCA I/hCA IX” value came to 177 and the “Selectivity Ratio hCA II/hCA IX” value was 144. Besides, the “Effect on extracellular acidification (extracellular pH)” value with HT-29 cancer cells is reported as “weaker reversal effect of extracellular acidification”.

With `Cc1cc(=O)oc2cc(O[C@@H]3O[C@H](CO)[C@@H](O)[C@H](O)[C@@H]3O)ccc12` [Compound 9], the figures for the Ki at CAI, at CAII and at CAIX were more than 100 µM, more than 100 µM and 0.0092 µM, respectively.

On to `S=c1ccc2ccccc2s1` [Dithiocoumarin 5, dithiocoumarin], for which the Ki at CAI and on CAII was more than 100 µM throughout.

As for `S=c1ccc2ccccc2o1` [2-Thiocoumarin 4, 2-thioxocoumarin], the results for the Ki at CAI, at CAII and on CAIX were more than 100 µM, more than 100 µM and 6.7 µM, respectively.

For `O=c1ccc2ccc(O)cc2o1` [Umbelliferone, 7-hydroxy coumarin], the Ki was more than 58.4 µM on CAI, more than 100 µM at CAII and 0.478 µM at CAIX. The “Inhibition of hCA I (in words)” value on hCA I was “not at all inhibited”. Further, the “Inhibition of hCA IX (in words)” value on hCA IX is on record as “weakly inhibited”.

Take `O=c1ccc2ccccc2s1` [Thiocoumarin 3, thiocoumarin]: the Ki on CAI is more than 100 µM.

In turn, `Cc1cc(=O)oc2cc(OCc3cn([C@@H]4O[C@H](CO)[C@@H](O)[C@H]4O)nn3)ccc12` [Compound 10p, 7-[(1-β-. D-ribofuranosyl-1H-1,2,3-triazol-4-yl)methoxy]-4-methyl-2H-chromen-2-one] returned a melting point of 123.2 to 125.6 °C. Moreover, in the data set with MDA-MB-231 cells (setting [3]), the viability at 100 µM came to 35.2%. Besides, the viability at 100 µM with MDA-MB-231 cells (setting [4]) is 73.1%. In addition, in the data set on HT-29 cells (setting [5]), the viability at 100 µM stood at 36.7%. In the data set on HT-29 cells (setting [6]), the viability at 100 µM stood at 63.1%. On hCA I, the IC50 was 63.4 µM. In data set [1], this molecule showed a CLint scaled at 1 μM of 2.98 mL/min/kg and a half-life at 1 μM of 30.7 h. Besides, the IC50 on hCA II was 22.4 µM. Also, at hCA IX, the 50% inhibitory concentration (IC50) came out at 0.098 µM, the “Selectivity Ratio hCA I/hCA IX” value was determined as 647 and the “Selectivity Ratio hCA II/hCA IX” value was found to be 229.

`O=c1ccc2ccc(OCc3cn([C@@H]4O[C@H](CO)[C@@H](O)[C@H](O)[C@@H]4O)nn3)cc2o1` [Compound 10c, 7-[(1-β-. D-mannopyranosyl-1H-1,2,3-triazol-4-yl)methoxy]-2H-chromen-2-one]: the viability at 100 µM with MDA-MB-231 cells (setting [3]) came out at 38.3%; in the data set on MDA-MB-231 cells (setting [4]) it was 55.2%; with HT-29 cells (setting [5]), 40.2%; in the data set on HT-29 cells (setting [6]), 42.6%. The IC50 at hERG channel was more than 50 µM; on hCA I, 17.5 µM; in the data set on MCF-10A cell line, more than 100 µM; at hCA II, 24 µM; at hCA IX, 0.015 µM. Besides, the “Survival Quantity/Total Quantity” value in the data set on mice (500 mg/kg), with mice (1000 mg/kg) and in the data set on mice (1500 mg/kg) was 5/5 each time. The LD50 at 14 days in data set [2] was more than 1500 mg/kg. The CLint scaled at 1 μM in data set [1] turned out to be 4.07 mL/min/kg. For the same molecule, the half-life at 1 μM in data set [1] came out at 22.4 h. In addition, the “Selectivity Ratio hCA I/hCA IX” value on hCA IX is recorded as 1167. Besides, the “Selectivity Ratio hCA II/hCA IX” value on hCA IX was determined as 1600.

Molecule `Cc1cc(=O)oc2cc(OCc3cn([C@@H]4OC[C@@H](O)[C@H](O)[C@H]4O)nn3)ccc12` [Compound 10m, 7-[(1-β-. D-xylopyranosyl-1H-1,2,3-triazol-4-yl)methoxy]-4-methyl-2H-chromen-2-one] registered a melting point of 122.4 to 123.9 °C. For the same molecule, the viability at 100 µM with MDA-MB-231 cells (setting [3]) was 39.8%. The viability at 100 µM in the data set with MDA-MB-231 cells (setting [4]) was determined as 53.2%. For the same molecule, in the data set on HT-29 cells (setting [5]), the viability at 100 µM came out at 35.5%. In the data set with HT-29 cells (setting [6]), the viability at 100 µM amounted to 40.5%. The IC50 on hCA I is 43.9 µM. Further, in [1], the CLint scaled at 1 μM was 3.38 mL/min/kg and the half-life at 1 μM is 27.1 h. The IC50 on hCA II worked out at 22.6 µM. Further, at hCA IX, the IC50 was 0.067 µM, the “Selectivity Ratio hCA I/hCA IX” value is 655 and the “Selectivity Ratio hCA II/hCA IX” value was determined as 337.

The molecule `N[C@@H]1[C@@H](O)[C@H](O)[C@@H](CO)O[C@H]1n1cc(COc2ccc3ccc(=O)oc3c2)nn1` [Compound 10d, 7-[(1-β-. D-glucosaminogly-1H-1,2,3-triazol-4-yl)methoxy]-2H-chromen-2-one] showed a melting point of 131.3 to 134.2 °C. The viability at 100 µM with MDA-MB-231 cells (setting [3]) came out at 38.9%. For the same molecule, the viability at 100 µM with MDA-MB-231 cells (setting [4]) came out at 60.2%. In addition, the viability at 100 µM in the data set with HT-29 cells (setting [5]) was 45.6%. Also, the viability at 100 µM with HT-29 cells (setting [6]) turned out to be 57%. In addition, the IC50 on hCA I was determined as 51.5 µM. Moreover, in [1], the CLint scaled at 1 μM is 4.26 mL/min/kg and the half-life at 1 μM was determined as 21.5 h. The 50% inhibitory concentration (IC50) at hCA II was 32.8 µM. For the same molecule, on hCA IX, the IC50 came to 0.057 µM, the “Selectivity Ratio hCA I/hCA IX” value is 904 and the “Selectivity Ratio hCA II/hCA IX” value is 575.

The values are drawn from article PMC9458059, “Design, Synthesis and Biological Evaluation of New Carbohydrate-Based Coumarin Derivatives as Selective Carbonic Anhydrase IX Inhibitors via “Click” Reaction” (Molecules, 2022).
